Measured values: patent US11498928B2, “Macrocyclic spiroethers as Mcl-1 inhibitors” (ASCENTAGE PHARMA (SUZHOU) CO., LTD., priority 2019, dated 2022)
Read-outs that look alike come from different tables or passages of the source.

Tests used:
[1] = tested on: NCI-H929 cells; test: Cell viability assay (NCI-H929 cells), CCK-8; assay type: cell-based; details: Homo sapiens, NCI-H929, 24 h, 5% FBS
Outline: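 Viability of NCI-H929 cells was measured using the Cell Counting Kit-8. After 24 hrs of compound exposure, 10 μL of CCK-8 solution per well was incubated for 1-4 hours, and absorbance was read at 450 nm on a BioTek Synergy 1MF. Readings were normalized to vehicle (DMSO) cells, and IC50 values were derived by nonlinear regression in GraphPad Prism 6.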

[2] = Pharmacokinetic studies in mice (IV and PO); assay type: in vivo; details: for F: PO 10 mg/kg vs IV 2 mg/kg; for AUC(0-inf) / AUC(0-t) / clearance / half-life / Cmax / MRT last / Vd / Tmax / Vd/F: mouse, plasma; for MRT last: read-out: MRT0-last; for Vd: read-out: Vss; for Vd/F: read-out: Vz/F
Protocol: Administration: Mice in the IV group was dosed at 2 mg/kg (20% PEG 400+10% Cremophor EL+70% PBS 7.4) via tail vein injection (N=9). Mice in the PO group was dosed at 10 mg/kg (20% PEG 400+10% Cremophor EL+70% PBS 7.4) via oral gavage (N=9). All the mice were fasted overnight before dosing and had free access to food 4 hr post dosing.
Sampling: The animal was restrained manually at the designated time points (0.083, 0.25, 0.5, 1, 2, 4, 6, 8 and 24 hr), approximately 110 μL of blood sample was collected via retro-orbital puncture or cardiac puncture for terminal bleeding under the anesthesia with Isoflurane inhalation into K2EDTA tubes. The blood samples were maintained in wet ice first and centrifuged to obtain plasma (2000 g, 4° C., 5 min) within 15 minutes post sampling. All the plasma samples were stored at approximately −70° C. until analysis.

[3] = molecular target: T1, Mcl-1 protein (residues 171-323) (Homo sapiens, UniProt Q07820); test: Inhibition of Mcl-1 by fluorescence polarization (FP) competitive binding assay with FAM-Bid tracer; details: 2 nM FAM-Bid, 20 nM Mcl-1, 30 min
T1 construct: Tag-free Mcl-1 protein (residues 171-323) was used in the FP assay
T1 sequence (Q07820 171-323): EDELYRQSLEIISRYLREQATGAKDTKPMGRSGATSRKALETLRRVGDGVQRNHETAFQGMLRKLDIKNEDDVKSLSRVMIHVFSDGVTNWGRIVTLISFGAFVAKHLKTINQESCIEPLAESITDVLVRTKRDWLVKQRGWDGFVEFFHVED
Outline: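 Ten-point compound titrations compete against 2 nM fluorescein-Bid for 20 nM Mcl-1 (171-323, untagged). Incubation 30 min RT in PBS buffer with BGG and Triton, 5% DMSO final. mP reduction fitted by sigmoidal nonlinear regression for IC50.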

[4] = tested on: OPM-2 cells; test: Cell viability assay (OPM-2 cells), CCK-8; assay type: cell-based; details: Homo sapiens, OPM-2, 24 h, 5% FBS
Outline: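 Viability read by CCK-8 absorbance (450 nm, 4 h reagent incubation) after 24 h compound exposure of 20000 OPM-2 cells per well at 37 °C. IC50 fitted by nonlinear regression on vehicle-normalized signal.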

[5] = IV 2 mg/kg, read-out: C0/Cmax (C0)
[6] = PO 10 mg/kg, read-out: C0/Cmax (Cmax)

Row | Structure (SMILES) | IC50 [1] [nM] | F [2] [%] | AUC(0-inf) ([2]; IV 2 mg/kg) [ng·h/mL] | AUC(0-t) ([2]; IV 2 mg/kg) [ng·h/mL] | clearance ([2]; IV 2 mg/kg) [mL/min/kg] | half-life ([2]; IV 2 mg/kg) [h] | Cmax [2, 5] [ng/mL] | MRT last ([2]; IV 2 mg/kg) [h] | Vd ([2]; IV 2 mg/kg) [L/kg] | AUC(0-inf) ([2]; PO 10 mg/kg) [ng·h/mL] | AUC(0-t) ([2]; PO 10 mg/kg) [ng·h/mL] | Tmax ([2]; PO 10 mg/kg) [h] | half-life ([2]; PO 10 mg/kg) [h] | Cmax [2, 6] [ng/mL] | MRT last ([2]; PO 10 mg/kg) [h] | Vd/F ([2]; PO 10 mg/kg) [L/kg] | IC50 [3] [nM] | IC50 [4] [nM]
1 | CO[C@H]1C2=CC(C)(C2)[C@H](C)CS(=O)(=O)NC(=O)c2ccc3c(c2)N(C[C@@H]2CC[C@H]21)C[C@@]1(CCCc2cc(Cl)ccc21)CO3 (mixture of isomers) [13 (mixture)] | 89 | 57.2 | 5200 | 4780 | 6.4 | 6.5 | 861 | 6.2 | 3.2 | 14900 | 14400 | 4 | 4.5 | 1270 | 6.6 | 4.4 | 21 | 348
2 | CO[C@H]1C2=CC(C2)[C@H](C)[C@@H](C)S(=O)(=O)NC(=O)c2ccc3c(c2)N(C[C@@H]2CC[C@H]21)C[C@@]1(CCCc2cc(Cl)cc(F)c21)CO3 (single isomer, unassigned) [20 (isomer 1)] | 2000 | 60.2 | 7500 | 7350 | 4.45 | 6.7 | 6090 | 2.4 | 0.8 | 22600 | 22300 | 1 | 4.9 | 4860 | 3.6 | 3.1 | 12 | 2690
3 | C[C@@H]1[C@@H](C)S(=O)(=O)NC(=O)c2ccc3c(c2)N(C[C@@H]2CC[C@H]2[C@@H](OCCN2CCS(=O)(=O)CC2)C2=C[C@H]1C2)C[C@@]1(CCCc2c1ccc(Cl)c2F)CO3 [compound 88, (1S,11′R,12′S,13′R,16′R,16a′R,18a′R,E)-6-chloro-16′-(2-(1,1-dioxidothiomorpholino)ethoxy)-5-fluoro-11′,12′-dimethyl-3,4,12′,13′,16′,16a′,17′,18′,18a′,19′-decahydro-1′H,2H,3′H,11′H-spiro[naphthalene-1,2′-[5,7]etheno[13,15]methanocyclobuta[i][1,4]oxazepino[3,4-f][1]thia[2,7]diazacyclohexadecin]-8′(9′H)-one 10′,10′-dioxide] | 40 | – | – | – | – | – | – | – | – | – | – | – | – | – | – | – | 13 | 118
4 | C[C@@H]1[C@@H](C)S(=O)(=O)NC(=O)c2ccc3c(c2)N(C[C@@H]2CC[C@H]2[C@@H](OCCN2CCCS2(=O)=O)C2=C[C@H]1C2)C[C@@]1(CCCc2c1ccc(Cl)c2F)CO3 [compound 92, (1S,11′R,12′S,13′R,16′R,16a′R,18a′R)-6-chloro-16′-(2-(1,1-dioxidoisothiazolidin-2-yl)ethoxy)-5-fluoro-11′,12′-dimethyl-3,4,12′,13′,16′,16a′,17′,18′,18a′,19′-decahydro-1′H,2H,3′H,11′H-spiro[naphthalene-1,2′-[5,7]etheno[13,15]methanocyclobuta[i][1,4]oxazepino[3,4-f][1]thia[2,7]diazacyclohexadecin]-8′(9′H)-one 10′,10′-dioxide] | 59 | – | – | – | – | – | – | – | – | – | – | – | – | – | – | – | 14 | 44
5 | C[C@@H]1[C@@H](C)S(=O)(=O)NC(=O)c2ccc3c(c2)N(C[C@@H]2CC[C@H]2[C@@H](OCc2ccccn2)C2=C[C@H]1C2)C[C@@]1(CCCc2c1ccc(Cl)c2F)CO3 [compound 94, (1S,11′R,12′S,13′R,16′R,16a′R,18a′R,E)-6-chloro-5-fluoro-11′,12′-dimethyl-16′-(pyridin-2-ylmethoxy)-3,4,12′,13′,16′,16a′,17′,18′,18a′,19′-decahydro-1′H,2H,3′H,11′H-spiro[naphthalene-1,2′-[5,7]etheno[13,15]methanocyclobuta[i][1,4]oxazepino[3,4-f][1]thia[2,7]diazacyclohexadecin]-8′(9′H)-one 10′,10′-dioxide] | 200 | – | – | – | – | – | – | – | – | – | – | – | – | – | – | – | 48 | 96
6 | C[C@@H]1[C@@H](C)S(=O)(=O)NC(=O)c2ccc3c(c2)N(C[C@@H]2CC[C@H]2[C@@H](OCCN2CCC(F)(F)CC2)C2=C[C@H]1C2)C[C@@]1(CCCc2c1ccc(Cl)c2F)CO3 [compound 95] | 44 | – | – | – | – | – | – | – | – | – | – | – | – | – | – | – | 23 | 42

The next compounds have a lower IC50 [1] than those just listed; values first:

Row | IC50 [1] [nM] | F [2] [%] | AUC(0-inf) ([2]; IV 2 mg/kg) [ng·h/mL] | AUC(0-t) ([2]; IV 2 mg/kg) [ng·h/mL] | clearance ([2]; IV 2 mg/kg) [mL/min/kg] | half-life ([2]; IV 2 mg/kg) [h] | Cmax [2, 5] [ng/mL] | MRT last ([2]; IV 2 mg/kg) [h] | Vd ([2]; IV 2 mg/kg) [L/kg] | AUC(0-inf) ([2]; PO 10 mg/kg) [ng·h/mL] | AUC(0-t) ([2]; PO 10 mg/kg) [ng·h/mL] | Tmax ([2]; PO 10 mg/kg) [h] | half-life ([2]; PO 10 mg/kg) [h] | Cmax [2, 6] [ng/mL] | MRT last ([2]; PO 10 mg/kg) [h] | Vd/F ([2]; PO 10 mg/kg) [L/kg] | IC50 [3] [nM] | Structure (SMILES) | IC50 [4] [nM]
7 | 37 | 70.5 | 2440 | 2380 | 13.6 | 1.6 | 1260 | 1.9 | 1.7 | 8620 | 8360 | 2 | 4.9 | 1690 | 4.5 | 8.3 | 9 | COCCO[C@H]1C2=CC(C2)[C@H](C)[C@@H](C)S(=O)(=O)NC(=O)c2ccc3c(c2)N(C[C@@H]2CC[C@H]21)C[C@@]1(CCCc2cc(Cl)ccc21)CO3 (mixture of isomers) [16 (mixture)] | 136
8 | 7.5 | – | – | – | – | – | – | – | – | – | – | – | – | – | – | – | 11 | C[C@@H]1[C@@H](C)S(=O)(=O)NC(=O)c2ccc3c(c2)N(C[C@@H]2CC[C@H]2[C@@H](OCCN2CCN(C4CCOCC4)CC2)C2=C[C@H]1C2)C[C@@]1(CCCc2c1ccc(Cl)c2F)CO3 [compound 89, (1S,11′R,12′S,13′R,16′R,16a′R,18a′R)-6-chloro-5-fluoro-11′,12′-dimethyl-16′-(2-(4-(tetrahydro-2H-pyran-4-yl)piperazin-1-yl)ethoxy)-3,4,12′,13′,16′,16a′,17′,18′,18a′,19′-decahydro-1′H,2H,3′H, 11′H-spiro[naphthalene-1,2′-[5,7]etheno[13,15]methanocyclobuta[i][1,4]oxazepino[3,4-f][1]thia[2,7]diazacyclohexadecin]-8′(9′H)-one 10′,10′-dioxide] | 53
9 | 1.6 | – | – | – | – | – | – | – | – | – | – | – | – | – | – | – | 12 | CC(C)N1CCN(CCO[C@H]2C3=C[C@@H](C3)[C@H](C)[C@@H](C)S(=O)(=O)NC(=O)c3ccc4c(c3)N(C[C@@H]3CC[C@H]32)C[C@@]2(CCCc3c2ccc(Cl)c3F)CO4)CC1 [compound 90, (1S,11′R,12′S,13′R,16′R,16a′R,18a′R,E)-6-chloro-5-fluoro-16′-(2-(4-isopropylpiperazin-1-yl)ethoxy)-11′,12′-dimethyl-3,4,12′,13′,16′,16a′,17′,18′,18a′,19′-decahydro-1′H,2H,3′H, 11′H-spiro[naphthalene-1,2′-[5,7]etheno[13,15]methanocyclobuta[i][1,4]oxazepino[3,4-f][1]thia[2,7]diazacyclohexadecin]-8′(9′H)-one 10′,10′-dioxide] | 20
10 | 16 | – | – | – | – | – | – | – | – | – | – | – | – | – | – | – | 15 | C[C@@H]1[C@@H](C)S(=O)(=O)NC(=O)c2ccc3c(c2)N(C[C@@H]2CC[C@H]2[C@@H](OCCN2CCN(C)CC2=O)C2=C[C@H]1C2)C[C@@]1(CCCc2c1ccc(Cl)c2F)CO3 [compound 91, (1S,11′R,12′S,13′R,16′R,16a′R,18a′R)-6-chloro-5-fluoro-11′,12′-dimethyl-16′-(2-(4-methyl-2-oxopiperazin-1-yl)ethoxy)-3,4,12′,13′,16′,16a′,17′,18′,18a′,19′-decahydro-1′H,2H,3′H,11′H-spiro[naphthalene-1,2′-[5,7]etheno[13,15]methanocyclobuta[i][1,4]oxazepino[3,4-f][1]thia[2,7]diazacyclohexadecin]-8′(9′H)-one 10′,10′-dioxide] | 59
11 | 11 | – | – | – | – | – | – | – | – | – | – | – | – | – | – | – | 19 | CO[C@@]1(CN2CCC(N3CCOCC3)CC2)C2=C[C@@H](C2)[C@H](C)[C@@H](C)S(=O)(=O)NC(=O)c2ccc3c(n2)N(C[C@@H]2CC[C@H]21)C[C@@]1(CCCc2c1ccc(Cl)c2F)CO3 [compound 93, (1S,11′R,12′S,13′R,16′R,16a′R,18a′R)-6-chloro-5-fluoro-16′-methoxy-11′,12′-dimethyl-16′-((4-morpholinopiperidin-1-yl)methyl)-3,4,12′,13′,16′,16a′,17′,18′,18a′,19′-decahydro-1′H,2H,3′H,11′H-spiro[naphthalene-1,2′-[5,7]etheno[13,15]methanocyclobuta[i][1,4]oxazepino[3,4-f][1]thia[2,5,7]triazacyclohexadecin]-8′(9′H)-one 10′,10′-dioxide] | 71
